Data: the supplement of paper PMC10307832

Experiments:
Test in all cases: relative viability (nuclei count vs DMSO), 5 days (fraction); higher = more cells survive
Linifanib = compound: Cc1ccc(F)c(NC(=O)Nc2ccc(-c3cccc4[nH]nc(N)c34)cc2)c1 [Linifanib]
Procedure, shortened: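 After an overnight hold at 37 °C, lung cancer cell lines in 1536-well plates were pinned with five library-drug doses (not always all listed), each √10 from the next, on vehicle-anchored plates. The cells stayed 5 days without fresh medium, then a one-step fix, permeabilisation and Hoechst stain preceded 4× imaging and MetaXpress nuclear counts. A plate passed only with control CV under 25% and at least one doubling. Viability is the median, over plates, of treated-well nuclei relative to vehicle-well nuclei.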

Linifanib + Olaparib = compound: Cc1ccc(F)c(NC(=O)Nc2ccc(-c3cccc4[nH]nc(N)c34)cc2)c1 [Linifanib] + O=C(c1cc(Cc2n[nH]c(=O)c3ccccc23)ccc1F)N1CCN(C(=O)C2CC2)CC1 [Olaparib] (partner 8 µM)
Procedure, shortened: (§1)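 Cells from lung cancer lines were seeded into 1536-well plates and, one day later, dosed by pin tool. Treatments were either a single drug or a fixed dose of an anchor drug with five library-drug doses (not always all listed) in √10 steps. After 5 days, nuclei were stained in a one-step fixation (final 0.05% Triton X-100, 1% formaldehyde, 1 ug/ml Hoechst) and counted on 4× images, and relative viability is the treated-to-vehicle nuclei ratio, as the median of duplicate plates.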

Linifanib + Crizotinib = compound: Cc1ccc(F)c(NC(=O)Nc2ccc(-c3cccc4[nH]nc(N)c34)cc2)c1 [Linifanib] + C[C@@H](Oc1cc(-c2cnn(C3CCNCC3)c2)cnc1N)c1c(Cl)ccc(F)c1Cl [Crizotinib] (partner 1 µM)
Procedure, shortened: as §1

Linifanib + Lapatinib = compound: Cc1ccc(F)c(NC(=O)Nc2ccc(-c3cccc4[nH]nc(N)c34)cc2)c1 [Linifanib] + CS(=O)(=O)CCNCc1ccc(-c2ccc3ncnc(Nc4ccc(OCc5cccc(F)c5)c(Cl)c4)c3c2)o1 [Lapatinib] (partner 2 µM)
Procedure, shortened: as §1

Linifanib + Bortezomib = compound: Cc1ccc(F)c(NC(=O)Nc2ccc(-c3cccc4[nH]nc(N)c34)cc2)c1 [Linifanib] + CC(C)C[C@H](NC(=O)[C@H](Cc1ccccc1)NC(=O)c1cnccn1)B(O)O [Bortezomib] (partner 0.002 µM)
Procedure, shortened: as §1

Linifanib + Linsitinib = compound: Cc1ccc(F)c(NC(=O)Nc2ccc(-c3cccc4[nH]nc(N)c34)cc2)c1 [Linifanib] + C[C@]1(O)C[C@@H](c2nc(-c3ccc4ccc(-c5ccccc5)nc4c3)c3c(N)nccn32)C1 [Linsitinib] (partner 1 µM)
Procedure, shortened: as §1

Linifanib + Pictilisib = compound: Cc1ccc(F)c(NC(=O)Nc2ccc(-c3cccc4[nH]nc(N)c34)cc2)c1 [Linifanib] + CS(=O)(=O)N1CCN(Cc2cc3nc(-c4cccc5[nH]ncc45)nc(N4CCOCC4)c3s2)CC1 [Pictilisib] (partner 1 µM)
Procedure, shortened: as §1

Linifanib + Alpelisib = compound: Cc1ccc(F)c(NC(=O)Nc2ccc(-c3cccc4[nH]nc(N)c34)cc2)c1 [Linifanib] + Cc1nc(NC(=O)N2CCC[C@H]2C(N)=O)sc1-c1ccnc(C(C)(C)C(F)(F)F)c1 [Alpelisib] (partner 2 µM)
Procedure, shortened: as §1

Linifanib + Foretinib = compound: Cc1ccc(F)c(NC(=O)Nc2ccc(-c3cccc4[nH]nc(N)c34)cc2)c1 [Linifanib] + COc1cc2c(Oc3ccc(NC(=O)C4(C(=O)Nc5ccc(F)cc5)CC4)cc3F)ccnc2cc1OCCCN1CCOCC1 [Foretinib] (partner 0.25 µM)
Procedure, shortened: as §1

Linifanib + Navitoclax = compound: Cc1ccc(F)c(NC(=O)Nc2ccc(-c3cccc4[nH]nc(N)c34)cc2)c1 [Linifanib] + CC1(C)CCC(c2ccc(Cl)cc2)=C(CN2CCN(c3ccc(C(=O)NS(=O)(=O)c4ccc(N[C@H](CCN5CCOCC5)CSc5ccccc5)c(S(=O)(=O)C(F)(F)F)c4)cc3)CC2)C1 [Navitoclax] (partner 0.5 µM)
Procedure, shortened: as §1

Linifanib + AZD7762 = compound: Cc1ccc(F)c(NC(=O)Nc2ccc(-c3cccc4[nH]nc(N)c34)cc2)c1 [Linifanib] + NC(=O)Nc1cc(-c2cccc(F)c2)sc1C(=O)N[C@H]1CCCNC1 [AZD7762] (partner 0.2 µM)
Procedure, shortened: as §1

Linifanib + Palbociclib = compound: Cc1ccc(F)c(NC(=O)Nc2ccc(-c3cccc4[nH]nc(N)c34)cc2)c1 [Linifanib] + CC(=O)c1c(C)c2cnc(Nc3ccc(N4CCNCC4)cn3)nc2n(C2CCCC2)c1=O [Palbociclib] (partner 0.5 µM)
Procedure, shortened: as §1

Linifanib + Vorinostat = compound: Cc1ccc(F)c(NC(=O)Nc2ccc(-c3cccc4[nH]nc(N)c34)cc2)c1 [Linifanib] + O=C(CCCCCCC(=O)Nc1ccccc1)NO [Vorinostat] (partner 1 µM)
Procedure, shortened: as §1

Linifanib + Phenformin = compound: Cc1ccc(F)c(NC(=O)Nc2ccc(-c3cccc4[nH]nc(N)c34)cc2)c1 [Linifanib] + N=C(N)NC(=N)NCCc1ccccc1 [Phenformin] (partner 250 µM)
Procedure, shortened: as §1

Linifanib + Dasatinib = compound: Cc1ccc(F)c(NC(=O)Nc2ccc(-c3cccc4[nH]nc(N)c34)cc2)c1 [Linifanib] + Cc1nc(Nc2ncc(C(=O)Nc3c(C)cccc3Cl)s2)cc(N2CCN(CCO)CC2)n1 [Dasatinib] (partner 0.075 µM)
Procedure, shortened: as §1

Linifanib + Pemetrexed = compound: Cc1ccc(F)c(NC(=O)Nc2ccc(-c3cccc4[nH]nc(N)c34)cc2)c1 [Linifanib] + Nc1nc2[nH]cc(CCc3ccc(C(=O)N[C@@H](CCC(=O)O)C(=O)O)cc3)c2c(=O)[nH]1 [Pemetrexed] (partner 0.2 µM)
Procedure, shortened: as §1

Linifanib + Decitabine = compound: Cc1ccc(F)c(NC(=O)Nc2ccc(-c3cccc4[nH]nc(N)c34)cc2)c1 [Linifanib] + Nc1ncn([C@H]2C[C@H](O)[C@@H](CO)O2)c(=O)n1 [Decitabine] (partner 2 µM)
Procedure, shortened: as §1

Linifanib + Trametinib = compound: Cc1ccc(F)c(NC(=O)Nc2ccc(-c3cccc4[nH]nc(N)c34)cc2)c1 [Linifanib] + CC(=O)Nc1cccc(-n2c(=O)n(C3CC3)c(=O)c3c(Nc4ccc(I)cc4F)n(C)c(=O)c(C)c32)c1 [Trametinib] (partner 0.02 µM)
Procedure, shortened: as §1

Linifanib + Luminespib = compound: Cc1ccc(F)c(NC(=O)Nc2ccc(-c3cccc4[nH]nc(N)c34)cc2)c1 [Linifanib] + CCNC(=O)c1noc(-c2cc(C(C)C)c(O)cc2O)c1-c1ccc(CN2CCOCC2)cc1 [Luminespib] (partner 0.01 µM)
Procedure, shortened: as §1

Linifanib + Tozasertib = compound: Cc1ccc(F)c(NC(=O)Nc2ccc(-c3cccc4[nH]nc(N)c34)cc2)c1 [Linifanib] + Cc1cc(Nc2cc(N3CCN(C)CC3)nc(Sc3ccc(NC(=O)C4CC4)cc3)n2)n[nH]1 [Tozasertib] (partner 0.1 µM)
Procedure, shortened: as §1

Linifanib + OSI-027 = compound: Cc1ccc(F)c(NC(=O)Nc2ccc(-c3cccc4[nH]nc(N)c34)cc2)c1 [Linifanib] + COc1cccc2cc(-c3nc([C@H]4CC[C@H](C(=O)O)CC4)n4ncnc(N)c34)[nH]c12 [OSI-027] (partner 0.5 µM)
Procedure, shortened: as §1

Question: Which results are given for Calu-6?
Answer: relative viability (Linifanib; 0.03162 µM): 1.05; relative viability (Linifanib; 0.1 µM): 1.05; relative viability (Linifanib; 0.3162 µM): 0.995; relative viability (Linifanib + Olaparib; first compound 0.03162 µM): 0.539; relative viability (Linifanib + Olaparib; first compound 0.1 µM): 0.602; relative viability (Linifanib + Olaparib; first compound 0.3162 µM): 0.565; relative viability (Linifanib + Crizotinib; first compound 0.03162 µM): 0.815; relative viability (Linifanib + Crizotinib; first compound 0.1 µM): 0.768; relative viability (Linifanib + Crizotinib; first compound 0.3162 µM): 0.826; relative viability (Linifanib + Lapatinib; first compound 0.03162 µM): 1.12; relative viability (Linifanib + Lapatinib; first compound 0.1 µM): 1.19; relative viability (Linifanib + Lapatinib; first compound 0.3162 µM): 1; relative viability (Linifanib + Bortezomib; first compound 0.03162 µM): 0.978; relative viability (Linifanib + Bortezomib; first compound 0.1 µM): 1.15; relative viability (Linifanib + Bortezomib; first compound 0.3162 µM): 1.07; relative viability (Linifanib + Linsitinib; first compound 0.03162 µM): 1.01; relative viability (Linifanib + Linsitinib; first compound 0.1 µM): 0.919; relative viability (Linifanib + Linsitinib; first compound 0.3162 µM): 0.969; relative viability (Linifanib + Pictilisib; first compound 0.03162 µM): 0.93; relative viability (Linifanib + Pictilisib; first compound 0.1 µM): 0.995; relative viability (Linifanib + Pictilisib; first compound 0.3162 µM): 0.892; relative viability (Linifanib + Alpelisib; first compound 0.03162 µM): 1.08; relative viability (Linifanib + Alpelisib; first compound 0.1 µM): 1.05; relative viability (Linifanib + Alpelisib; first compound 0.3162 µM): 1.01; relative viability (Linifanib + Foretinib; first compound 0.03162 µM): 0.812; relative viability (Linifanib + Foretinib; first compound 0.1 µM): 0.95; relative viability (Linifanib + Foretinib; first compound 0.3162 µM): 0.881; relative viability (Linifanib + Navitoclax; first compound 0.03162 µM): 0.888; relative viability (Linifanib + Navitoclax; first compound 0.1 µM): 0.863; relative viability (Linifanib + Navitoclax; first compound 0.3162 µM): 0.873

Question: What does the source list for EBC-1?
Answer: relative viability (Linifanib; 0.03162 µM): 1.02; relative viability (Linifanib; 0.1 µM): 1.14; relative viability (Linifanib; 0.3162 µM): 0.969; relative viability (Linifanib + Olaparib; first compound 0.03162 µM): 0.698; relative viability (Linifanib + Olaparib; first compound 0.1 µM): 0.757; relative viability (Linifanib + Olaparib; first compound 0.3162 µM): 0.73; relative viability (Linifanib + Crizotinib; first compound 0.03162 µM): 0.205; relative viability (Linifanib + Crizotinib; first compound 0.1 µM): 0.208; relative viability (Linifanib + Crizotinib; first compound 0.3162 µM): 0.224; relative viability (Linifanib + Lapatinib; first compound 0.03162 µM): 0.207; relative viability (Linifanib + Lapatinib; first compound 0.1 µM): 0.21; relative viability (Linifanib + Lapatinib; first compound 0.3162 µM): 0.214; relative viability (Linifanib + Bortezomib; first compound 0.03162 µM): 0.551; relative viability (Linifanib + Bortezomib; first compound 0.1 µM): 0.628; relative viability (Linifanib + Bortezomib; first compound 0.3162 µM): 0.574; relative viability (Linifanib + Linsitinib; first compound 0.03162 µM): 0.996; relative viability (Linifanib + Linsitinib; first compound 0.1 µM): 0.864; relative viability (Linifanib + Linsitinib; first compound 0.3162 µM): 0.731; relative viability (Linifanib + Pictilisib; first compound 0.03162 µM): 0.372; relative viability (Linifanib + Pictilisib; first compound 0.1 µM): 0.486; relative viability (Linifanib + Pictilisib; first compound 0.3162 µM): 0.477; relative viability (Linifanib + Alpelisib; first compound 0.03162 µM): 0.809; relative viability (Linifanib + Alpelisib; first compound 0.1 µM): 1.06; relative viability (Linifanib + Alpelisib; first compound 0.3162 µM): 0.791; relative viability (Linifanib + Foretinib; first compound 0.03162 µM): 0.115; relative viability (Linifanib + Foretinib; first compound 0.1 µM): 0.103; relative viability (Linifanib + Foretinib; first compound 0.3162 µM): 0.112; relative viability (Linifanib + Navitoclax; first compound 0.03162 µM): 0.472; relative viability (Linifanib + Navitoclax; first compound 0.1 µM): 0.412; relative viability (Linifanib + Navitoclax; first compound 0.3162 µM): 0.387

Question: Which results are given for NCI-H522?
Answer: relative viability (Linifanib; 0.03162 µM): 0.943; relative viability (Linifanib; 0.1 µM): 1.02; relative viability (Linifanib; 0.3162 µM): 0.995; relative viability (Linifanib + Olaparib; first compound 0.03162 µM): 0.555; relative viability (Linifanib + Olaparib; first compound 0.1 µM): 0.693; relative viability (Linifanib + Olaparib; first compound 0.3162 µM): 0.667; relative viability (Linifanib + AZD7762; first compound 0.03162 µM): 0.879; relative viability (Linifanib + AZD7762; first compound 0.1 µM): 0.804; relative viability (Linifanib + AZD7762; first compound 0.3162 µM): 0.809; relative viability (Linifanib + Palbociclib; first compound 0.03162 µM): 1.05; relative viability (Linifanib + Palbociclib; first compound 0.1 µM): 0.954; relative viability (Linifanib + Palbociclib; first compound 0.3162 µM): 0.995; relative viability (Linifanib + Vorinostat; first compound 0.03162 µM): 0.851; relative viability (Linifanib + Vorinostat; first compound 0.1 µM): 0.88; relative viability (Linifanib + Vorinostat; first compound 0.3162 µM): 0.929; relative viability (Linifanib + Phenformin; first compound 0.03162 µM): 0.716; relative viability (Linifanib + Phenformin; first compound 0.1 µM): 0.647; relative viability (Linifanib + Phenformin; first compound 0.3162 µM): 0.551; relative viability (Linifanib + Dasatinib; first compound 0.03162 µM): 0.862; relative viability (Linifanib + Dasatinib; first compound 0.1 µM): 0.868; relative viability (Linifanib + Dasatinib; first compound 0.3162 µM): 0.871; relative viability (Linifanib + Pemetrexed; first compound 0.03162 µM): 0.945; relative viability (Linifanib + Pemetrexed; first compound 0.1 µM): 0.798; relative viability (Linifanib + Pemetrexed; first compound 0.3162 µM): 1.06; relative viability (Linifanib + Decitabine; first compound 0.03162 µM): 0.613; relative viability (Linifanib + Decitabine; first compound 0.1 µM): 0.703; relative viability (Linifanib + Decitabine; first compound 0.3162 µM): 0.759; relative viability (Linifanib + Trametinib; first compound 0.03162 µM): 0.643; relative viability (Linifanib + Trametinib; first compound 0.1 µM): 0.713; relative viability (Linifanib + Trametinib; first compound 0.3162 µM): 0.736; relative viability (Linifanib + Luminespib; first compound 0.03162 µM): 1.18; relative viability (Linifanib + Luminespib; first compound 0.1 µM): 0.98; relative viability (Linifanib + Luminespib; first compound 0.3162 µM): 1.13; relative viability (Linifanib + Tozasertib; first compound 0.03162 µM): 0.556; relative viability (Linifanib + Tozasertib; first compound 0.1 µM): 0.542; relative viability (Linifanib + Tozasertib; first compound 0.3162 µM): 0.474; relative viability (Linifanib + OSI-027; first compound 0.03162 µM): 0.815; relative viability (Linifanib + OSI-027; first compound 0.1 µM): 0.721; relative viability (Linifanib + OSI-027; first compound 0.3162 µM): 0.719
